Reference: BindingDB's records for doi:10.1016/S0960-894X(01)80152-9 (1994)

Legend:
[1] = target: Arachidonate 5-lipoxygenase (Cavia porcellus); assay: In vitro 5-lipoxygenase inhibition in guinea pig PMNs was determined based on LTB4 production
[2] = target: Arachidonate 5-lipoxygenase (Cavia porcellus); assay: In vitro 5-lipoxygenase inhibition in guinea pig PMNs was determined based on 5-hydroxyeicosapentaenoic acid (5-HETE) production

Row | Compound | IC50 [1] [µM] | IC50 [2] [µM]
1 | NC(=O)N(O)CC1=Cc2cc(Oc3ccccc3)ccc2SCC1 [N-hydroxy-N-[(7-phenoxy-2,3-dihydro-1-benzothiepin-4-yl)methyl]urea] | 0.13 | 0.12
2 | NC(=O)N(O)CC1=Cc2cc(Oc3ccc(F)cc3)ccc2OCC1 [N-{[7-(4-fluorophenoxy)-2,3-dihydro-1-benzoxepin-4-yl]methyl}-N-hydroxyurea] | 0.098 | 0.091
3 | NC(=O)N(O)CC1=Cc2ccc(Oc3ccccc3)cc2OCC1 [N-hydroxy-N-[(8-phenoxy-2,3-dihydro-1-benzoxepin-4-yl)methyl]urea] | 0.21 | 0.18

The next lines start with the values.

Row | IC50 [1] [µM] | IC50 [2] [µM] | Compound
4 | 0.13 | 0.1 | CNC(=O)N(O)CC1=Cc2cc(Oc3ccc(F)cc3)ccc2OCC1 [N-{[7-(4-fluorophenoxy)-2,3-dihydro-1-benzoxepin-4-yl]methyl}-N-hydroxy-N'-methylurea]
5 | 0.091 | 0.089 | NC(=O)N(O)CC1=Cc2cc(Oc3ccccc3)ccc2OCC1 [N-hydroxy-N-[(7-phenoxy-2,3-dihydro-1-benzoxepin-4-yl)methyl]urea]
